Measured values from patent US4973603A, “Platelet activating factor antagonist and methods of use therefor” (priority 1989, dated 1990).

Test system: platelet activating factor (PAF)
Assay: PAF Induced Paw Edema in the Mouse
Type: in vivo, mouse (Charles River CD-1, female)
Settings: for % Inhibition of Edema: 1 hour before PAF (1 ug/paw), 15 min after PAF
Method: The experimental procedure was adapted from Calhoun et al., Agents & Actions, 21:306-309 (1987). Charles River CD-1 female mice (20-25 G) were given a dose of Formula I, or phenidone, using peanut oil as a carrier. Control mice were given doses of the carrier alone. The drugs were administered orally in a 50 μl volume of peanut oil. One hour later, 1.0 μg of PAF dissolved in 50 μl of 5% ethanol-saline was injected subcutaneously into the plantar surface of the right hind paw. The volume of this injected foot to the level of the lateral malleous was measured by water displacement immediately before drug administration and again 15 minutes after PAF injection.
The effectiveness of each compound was analyzed in the following manner. The individual paw volumes were compared by a paired t test analysis in which predrug paw volumes were compared to paw volumes 15 minutes after PAF injection to determine the level of statistical significance. The percent inhibition of edema volume was obtained from the ratio of the mean predrug volume to the mean volume after PAF.

## CCCCCc1cc(O)c2c(c1)OC(C)(C)C1CC=C(C(=O)O)CC21 (stereo not shown) [Formula I, 6a,7,10,10a-tetrahydro-6,6-dimethyl-9-carboxyl-3-pentyl-6H-dibenzo[b,d]pyran-1-ol]
10 mg/kg oral
  % Inhibition of Edema: 21.8%
20 mg/kg oral
  % Inhibition of Edema: 50.2%
40 mg/kg oral
  % Inhibition of Edema: 46.2%
Mouse paw edema, oral
  antagonism of inflammatory actions of PAF (in words): effective antagonist to the inflammatory actions of PAF
